The source made the active and inactive calls.
Tests used:
[1] = molecular target: T1, Dual specificity protein phosphatase 3 (Homo sapiens, UniProt P51452); experiment: VHR1 phosphatase inhibitors, biochemical (AID 1878)
[2] = molecular target: T2, Dual specificity protein phosphatase 6 (Rattus norvegicus, UniProt Q64346); experiment: inhibition of rat DUSP6 enzyme activity – biochemical, in vitro, primary screen (AID 425)
T2 sequence (Q64346 whole entry): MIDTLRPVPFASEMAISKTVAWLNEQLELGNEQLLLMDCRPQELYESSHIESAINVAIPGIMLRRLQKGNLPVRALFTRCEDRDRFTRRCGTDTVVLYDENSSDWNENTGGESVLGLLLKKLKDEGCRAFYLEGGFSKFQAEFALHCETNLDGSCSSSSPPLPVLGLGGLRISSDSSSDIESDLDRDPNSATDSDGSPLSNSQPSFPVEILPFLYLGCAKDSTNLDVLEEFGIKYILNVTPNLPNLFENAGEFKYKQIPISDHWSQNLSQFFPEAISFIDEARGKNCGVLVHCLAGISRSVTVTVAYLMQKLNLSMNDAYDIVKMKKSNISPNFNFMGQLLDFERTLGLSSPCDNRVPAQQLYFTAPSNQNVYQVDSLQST

[3] = molecular target: T3, Carboxy-terminal domain RNA polymerase II polypeptide A small phosphatase 1 (Homo sapiens, UniProt Q9GZU7); experiment: CTDSP1 inhibitors, concentration-response, biochemical, absorbance readout, ultra-high-throughput screen actives (AID 540297); type: functional
T3 sequence (Q9GZU7 whole entry): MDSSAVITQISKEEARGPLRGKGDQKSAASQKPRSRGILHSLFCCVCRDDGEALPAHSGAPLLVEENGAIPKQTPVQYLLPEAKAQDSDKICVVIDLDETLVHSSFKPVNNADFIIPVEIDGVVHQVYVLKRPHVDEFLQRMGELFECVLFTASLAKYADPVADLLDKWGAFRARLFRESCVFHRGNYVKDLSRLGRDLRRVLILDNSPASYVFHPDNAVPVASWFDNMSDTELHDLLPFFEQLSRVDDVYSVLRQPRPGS

[4] = molecular target: Low molecular weight phosphotyrosine protein phosphatase (Homo sapiens, UniProt P24666); type: functional; conditions: read-out: IC50_Mean
[5] = molecular target: T1, Dual specificity protein phosphatase 3; experiment: VHR1 phosphatase inhibitors, primary screen, biochemical, absorbance, uHTS (AID 1654)
[6] = molecular target: Peroxisome proliferator-activated receptor gamma/Nuclear receptor coactivator 2 (Homo sapiens, UniProt P37231); experiment: (§1) TR-FRET dose response biochemical High Throughput Screening assay for agonists of the steroid receptor coactivator 2 (SRC-2) recruitment by the peroxisome proliferator-activated receptor gamma (PPAR gamma): non-selective agonists. [Related pubchem assays: 1297, 1032 ]; type: functional
[7] = molecular target: Peroxisome proliferator-activated receptor gamma/Nuclear receptor coactivator 1 (Homo sapiens, UniProt P37231); experiment: as §1, with “1 (SRC-1)” for “2 (SRC-2)”, “assays (depositor defined):AID1300, AID1808, AID504735, AID631]” for “assays: 1297, 1032 ]”; type: protein assay
[8] = molecular target: Peroxisome proliferator-activated receptor gamma/Nuclear receptor coactivator 3 (Homo sapiens, UniProt P37231); experiment: as §1, with “3 (SRC-3)” for “2 (SRC-2)”, “1301 (Confirmation screen.), 1048 (Primary screen.)]” for “1297, 1032 ]”; type: functional
[9] = molecular target: T4, Kappa-type opioid receptor (Homo sapiens, UniProt P41145); type: functional
[10] = molecular target: T5, Delta-type opioid receptor (Homo sapiens, UniProt P41143); experiment: HTS Image-Based Screen for Antagonists of the DOR Receptor. [Related pubchem assays (depositor defined):AID1777, AID1785, AID1786, AID2133]; type: functional
[11] = molecular target: T6, Mu-type opioid receptor (Homo sapiens, UniProt P35372); experiment: mu opioid receptor activators, image-based, SAR follow-up (AID 2352); type: functional
[12] = molecular target: T5, Delta-type opioid receptor; experiment: DOR agonists, SAR follow-up, image-based (AID 2370); type: functional
[13] = molecular target: T4, Kappa-type opioid receptor; experiment: kappa opioid receptor blockers, image-based, SAR follow-up (AID 2348); type: functional
[14] = molecular target: T5, Delta-type opioid receptor; experiment: delta opioid receptor blockers – image-based, SAR follow-up (AID 2357); type: functional
[15] = molecular target: T6, Mu-type opioid receptor; experiment: mu opioid receptor blockers – image-based, SAR follow-up (AID 2420); type: functional;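 further: compounds added before stimulation of receptor with agonist DAMGO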
[16] = molecular target: T5, Delta-type opioid receptor; experiment: HTS Image-Based Screen for Agonists of the DOR Receptor. [Related pubchem assays (depositor defined):AID1777, AID1786, AID2133]; type: functional
[17] = molecular target: T4, Kappa-type opioid receptor; type: functional; remark: listed apart in the source
[18] = molecular target: T6, Mu-type opioid receptor; experiment: HTS Image-Based Screen for Agonists of the MOR Receptor. [Related pubchem assays (depositor defined):AID1777, AID1785, AID1786, AID2133]; type: functional
[19] = molecular target: T4, Kappa-type opioid receptor; experiment: SAR analysis of small molecule agonists of the kappa opioid receptor via a luminescent beta-arrestin assay. [Related pubchem assays (depositor defined):AID1777, AID1786, AID1966, AID2133, AID2136, AID2348, AID2352, AID2357, AID2359, AID2370, AID2420, AID2478, AID2491, AID2492, AID2493, AID2497, AID2498, AID2500, AID449737, AID488822, AID488842]; type: functional
[20] = molecular target: T4, Kappa-type opioid receptor; experiment: kappa opioid receptor activation potency – imaging, image-based, SAR follow-up (AID 2359); type: functional

T4 sequence (P41145 whole entry): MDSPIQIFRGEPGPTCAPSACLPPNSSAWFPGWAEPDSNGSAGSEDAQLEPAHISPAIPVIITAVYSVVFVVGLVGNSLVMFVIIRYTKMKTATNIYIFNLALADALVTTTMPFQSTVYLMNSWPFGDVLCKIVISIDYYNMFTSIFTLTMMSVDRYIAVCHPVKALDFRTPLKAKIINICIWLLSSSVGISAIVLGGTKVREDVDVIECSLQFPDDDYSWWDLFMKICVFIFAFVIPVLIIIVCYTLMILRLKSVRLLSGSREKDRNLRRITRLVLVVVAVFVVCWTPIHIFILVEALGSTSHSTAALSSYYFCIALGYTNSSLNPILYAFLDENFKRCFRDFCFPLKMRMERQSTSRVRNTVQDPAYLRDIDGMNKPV
T6 sequence (P35372 whole entry): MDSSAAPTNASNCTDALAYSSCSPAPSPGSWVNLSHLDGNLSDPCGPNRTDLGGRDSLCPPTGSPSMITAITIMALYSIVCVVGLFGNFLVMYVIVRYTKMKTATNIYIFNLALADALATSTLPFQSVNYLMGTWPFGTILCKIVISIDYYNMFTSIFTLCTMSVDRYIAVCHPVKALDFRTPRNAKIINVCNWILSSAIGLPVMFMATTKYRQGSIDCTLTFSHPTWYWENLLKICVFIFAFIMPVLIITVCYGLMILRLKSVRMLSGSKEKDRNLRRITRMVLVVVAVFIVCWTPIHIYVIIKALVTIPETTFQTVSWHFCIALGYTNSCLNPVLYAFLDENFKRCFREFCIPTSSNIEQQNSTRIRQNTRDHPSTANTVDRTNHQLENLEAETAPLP
T5 sequence (P41143 whole entry): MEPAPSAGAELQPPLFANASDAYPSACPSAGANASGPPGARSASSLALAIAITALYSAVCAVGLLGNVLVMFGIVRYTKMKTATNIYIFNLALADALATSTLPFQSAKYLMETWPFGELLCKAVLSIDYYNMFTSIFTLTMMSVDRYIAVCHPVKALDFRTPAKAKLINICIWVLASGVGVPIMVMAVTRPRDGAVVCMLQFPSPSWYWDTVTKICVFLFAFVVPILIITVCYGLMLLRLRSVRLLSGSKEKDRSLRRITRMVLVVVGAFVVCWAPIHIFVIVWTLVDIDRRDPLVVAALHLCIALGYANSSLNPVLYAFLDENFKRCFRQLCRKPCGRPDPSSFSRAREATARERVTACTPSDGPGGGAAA
T1 sequence (P51452 whole entry): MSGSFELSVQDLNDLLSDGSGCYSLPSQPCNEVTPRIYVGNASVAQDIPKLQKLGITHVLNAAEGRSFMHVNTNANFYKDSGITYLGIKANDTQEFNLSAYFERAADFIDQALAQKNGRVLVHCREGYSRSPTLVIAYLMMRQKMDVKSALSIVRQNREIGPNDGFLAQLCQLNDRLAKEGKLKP
Chain of Peroxisome proliferator-activated receptor gamma/Nuclear receptor coactivator 1 (P37231 whole entry): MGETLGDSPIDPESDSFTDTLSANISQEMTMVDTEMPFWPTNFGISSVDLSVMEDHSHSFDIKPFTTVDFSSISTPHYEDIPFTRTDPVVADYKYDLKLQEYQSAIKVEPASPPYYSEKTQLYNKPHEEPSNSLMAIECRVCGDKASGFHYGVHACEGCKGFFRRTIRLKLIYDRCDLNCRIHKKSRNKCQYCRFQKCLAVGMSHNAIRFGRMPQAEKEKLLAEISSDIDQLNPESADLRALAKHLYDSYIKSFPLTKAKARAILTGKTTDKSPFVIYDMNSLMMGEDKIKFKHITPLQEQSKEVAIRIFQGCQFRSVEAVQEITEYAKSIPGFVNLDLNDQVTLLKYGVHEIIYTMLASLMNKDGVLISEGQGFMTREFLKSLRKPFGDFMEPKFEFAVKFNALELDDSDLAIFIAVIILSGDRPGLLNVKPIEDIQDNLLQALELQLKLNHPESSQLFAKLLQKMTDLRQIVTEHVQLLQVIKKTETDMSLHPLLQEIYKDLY
Chain of Peroxisome proliferator-activated receptor gamma/Nuclear receptor coactivator 1 (Q15788 whole entry, further chain): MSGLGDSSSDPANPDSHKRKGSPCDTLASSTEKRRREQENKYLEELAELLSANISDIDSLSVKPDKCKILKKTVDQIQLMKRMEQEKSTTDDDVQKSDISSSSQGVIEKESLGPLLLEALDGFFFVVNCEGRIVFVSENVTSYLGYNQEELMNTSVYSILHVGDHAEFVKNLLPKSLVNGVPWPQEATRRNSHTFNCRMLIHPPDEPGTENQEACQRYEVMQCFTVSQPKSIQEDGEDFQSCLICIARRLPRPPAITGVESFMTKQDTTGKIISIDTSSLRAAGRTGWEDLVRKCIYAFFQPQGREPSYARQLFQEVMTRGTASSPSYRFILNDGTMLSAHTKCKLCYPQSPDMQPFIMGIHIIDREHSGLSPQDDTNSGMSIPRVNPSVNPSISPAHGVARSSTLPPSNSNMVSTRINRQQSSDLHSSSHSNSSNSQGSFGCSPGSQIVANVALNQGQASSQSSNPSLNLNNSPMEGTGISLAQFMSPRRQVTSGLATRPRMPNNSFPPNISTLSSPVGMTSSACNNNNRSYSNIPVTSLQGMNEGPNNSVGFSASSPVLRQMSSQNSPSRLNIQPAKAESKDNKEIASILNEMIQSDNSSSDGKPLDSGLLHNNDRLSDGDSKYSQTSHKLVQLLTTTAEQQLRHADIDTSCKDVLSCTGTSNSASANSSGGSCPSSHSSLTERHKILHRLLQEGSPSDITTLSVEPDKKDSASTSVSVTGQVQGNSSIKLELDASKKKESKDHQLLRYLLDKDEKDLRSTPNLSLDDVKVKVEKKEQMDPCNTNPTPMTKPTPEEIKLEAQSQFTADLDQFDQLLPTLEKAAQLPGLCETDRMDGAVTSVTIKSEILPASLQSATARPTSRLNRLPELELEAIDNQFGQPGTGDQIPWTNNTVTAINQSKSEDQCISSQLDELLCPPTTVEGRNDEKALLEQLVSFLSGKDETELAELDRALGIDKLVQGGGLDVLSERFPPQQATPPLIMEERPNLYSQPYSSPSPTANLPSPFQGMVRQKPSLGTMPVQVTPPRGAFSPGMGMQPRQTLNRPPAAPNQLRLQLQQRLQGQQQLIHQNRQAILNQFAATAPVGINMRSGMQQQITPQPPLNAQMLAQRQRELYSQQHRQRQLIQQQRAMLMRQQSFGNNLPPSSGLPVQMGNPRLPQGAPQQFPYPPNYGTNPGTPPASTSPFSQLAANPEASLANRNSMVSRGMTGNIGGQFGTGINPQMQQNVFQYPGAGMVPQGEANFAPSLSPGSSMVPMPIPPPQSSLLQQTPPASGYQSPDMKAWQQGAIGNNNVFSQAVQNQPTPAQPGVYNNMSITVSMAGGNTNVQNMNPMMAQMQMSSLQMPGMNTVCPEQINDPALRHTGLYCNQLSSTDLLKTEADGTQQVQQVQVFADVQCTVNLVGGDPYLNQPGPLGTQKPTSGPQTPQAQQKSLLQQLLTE
Chain of Low molecular weight phosphotyrosine protein phosphatase (P24666 whole entry): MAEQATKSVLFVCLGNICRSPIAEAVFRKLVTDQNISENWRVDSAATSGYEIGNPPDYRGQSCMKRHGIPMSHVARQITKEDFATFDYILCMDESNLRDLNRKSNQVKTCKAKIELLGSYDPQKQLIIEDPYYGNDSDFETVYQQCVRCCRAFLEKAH

Question: Which IC50 [1] does the source give for `Cc1ccc(-n2c(=O)c3cc4c(=O)n(-c5ccc(C)c(C)c5)c(=O)c4c(C(=O)c4ccc(C(=O)O)cc4)c3c2=O)cc1C` here?
Answer: 5.31 µM (active)

Question: What about the IC50 [2] of the same compound?
Answer: 18.9 µM (active)

Question: What about the IC50 [3] of the same compound?
Answer: 1.12 µM (active)

Question: What about the IC50 [4] of the same compound?
Answer: 3.13 µM (active)

Question: What about the IC50 [5] of the same compound?
Answer: 3.39 µM (active)

Question: Which EC50 [6] does the source give for `C#CCn1/c(=N/C(=O)c2sc3ccccc3c2Cl)sc2cc(S(N)(=O)=O)ccc21` here?
Answer: 18.7 µM (not active)

Question: And the EC50 [7]?
Answer: 16.2 µM (inactive)

Question: What about the EC50 [8] of the same compound?
Answer: > 79.4 µM (not active)

Question: With `Cc1cccc(C)c1NC(=O)C1(N(Cc2ccco2)C(=O)c2ccccn2)CCCC1` as the compound, how does the EC50 [9] read?
Answer: 4.19 µM

Question: What about the IC50 [10] of the same compound?
Answer: > 32 µM (inactive)

Question: What about the EC50 [11] of the same compound?
Answer: > 32 µM (inactive)

Question: And the EC50 [12]?
Answer: > 32 µM (inactive)

Question: And the IC50 [13]?
Answer: > 32 µM (inactive)

Question: And the IC50 [14]?
Answer: > 32 µM (inactive)

Question: What about the IC50 [15] of the same compound?
Answer: > 32 µM (inactive)

Question: And the EC50 [16]?
Answer: > 32 µM (inactive)

Question: What about the EC50 [17] of the same compound?
Answer: 1.94 µM

Question: What about the EC50 [18] of the same compound?
Answer: > 32 µM (inactive)

Question: And the EC50 [19]?
Answer: 4.05 µM (active)

Question: And the EC50 [20]?
Answer: 1.11 µM (active)

From ChEMBL document CHEMBL1201862, “PubChem BioAssay data set” (2004)
